Measured values published in US20100316991A1, “HUMAN PARAINFLUENZA VIRUS TYPE 3 EXPRESSING THE ENHANCED GREEN FLUORESCENT PROTEIN FOR USE IN HIGH-THROUGHPUT ANTIVIRAL ASSAYS” (priority 2009, published 2010).
In brackets after ≈: the same amount, converted by molar mass.

Tests used:
[1] = system: MA-104 cells; test: 3-Day EGFP assay, toxicity control (no virus, NR fluorescence); format: cell-based, African green monkey; conditions: Chlorocebus sabaeus, MA104, 72 h, 3-Day EGFP fluorescent assay, uninfected MA-104 cells, read-out: IC50 (50% cell inhibitory concentration)
Method: (§1) Six 96-well plates were seeded with MA-104 cells to evaluate the NR and EGFP assays in parallel. A format was used allowing seven compounds to be tested per plate. Each compound was plated using four 10-fold dilutions in triplicate and starting the concentration at 1000 μg/mL for ribavirin (positive control), and ribamidine; 100 μg/mL for 2-thio-6-azauridine, 3-deazaguanosine, 1-(4-methoxybenzyloxy) adenosine, selenazofurin, and EICAR; 100 μM for CS-978, CS-1164, CS-1196, CS-1227, PSI-0194, PSI-5067, PSI-5095, PSI-5098, PSI-5452, PSI-5449, PSI-5741, PSI-5746, PSI-5747, PSI-5852, and PSI-5990; and 1 μg/mL for DAS181. Compounds that were reconstituted in DMSO were diluted down to working concentrations of 0.5% DMSO and less to eliminate cell toxicity due to the DMSO. Two of the replicates were infected with 3.9×10^3 PFU of rHPIV3-EGFP, at an MOI=0.1, while the remaining replicate served as a toxicity control with no virus added. Three of the plates were incubated at 37° C. for 3 days, after which, the toxicity and cell control cells were stained with NR following the same procedure described earlier. NR fluorescence was measured with the FMax® fluorometer, using the 544 nm excitation and 612 nm emission filters. The untreated virus control and treated, infected cells were washed with PBS, fresh PBS was added, and the fluorescence was measured with the FMax® fluorometer, using the 485 nm excitation and 538 nm emission filters. The other three plates were assayed using the traditional colorimetric NR assay. After incubation for 7 days at 37° C., the cells were stained with NR following the same procedure described earlier. For the NR assay, EC50 and 50% cell inhibitory concentrations (IC50) were calculated by linear regression from percents of untreated, uninfected cell and untreated, infected virus controls. For the EGFP assay, EC50 values were calculated by linear regression using percents of untreated, infected virus controls and IC50 values were also calculated by linear regression using percents of untreated, uninfected cell control. The EC50 and IC50 values for each compound for both assays were compared and statistically analyzed by unpaired, two-tailed Student's t-test. A selectivity index (SI) was calculated for each compound for each assay using the formula: SI=Mean IC50/Mean EC50. Compounds were sorted into positive, SI≧10, and negative, SI<10, categories for the combination of NR and EGFP assays. Using the NR assay as the gold standard, sensitivity, true positives/(true positives+false negatives), and specificity, true negatives/(true negatives+false positives), were calculated.

[2] = system: rHPIV3-EGFP; test: 3-Day EGFP fluorescent antiviral assay; format: cell-based, human parainfluenza type 3 virus; conditions: for EC50: MA104, 72 h
Method: as §1

[3] = system: MA-104 cells; test: 7-Day colorimetric neutral red uptake assay, toxicity control (no virus); format: cell-based, African green monkey; conditions: Chlorocebus sabaeus, MA104, 168 h, uninfected MA-104 cells, mean of three assays ± SD, read-out: IC50 (50% cell inhibitory concentration)
Method: (§2) Ninety-six-well plates were seeded with MA-104 cells and infected with 3.9×10^3 PFU of either the HPIV-3 WT or rHPIV3-EGFP virus in duplicate at an MOI=0.1 in quadruplicate wells. The plates were incubated at 37° C. and on each day, including the day of infection, the cells were stained with 0.034% neutral red for 2 hours at 37° C., washed once with PBS, and the NR extracted with ethanol:Sörenson's citrate buffer for 30 min while rocking at room temperature. Absorbance, at 540 and 405 nm wavelengths, was read with an Opsys MR™ spectrophotometer and Revelation Quicklink software, version 4.24 (both from Dynex Technologies, Chantilly, Va.). The two curves was compared and statistically analyzed by ANOVA.
as §1

[4] = system: rHPIV3-EGFP; test: 7-Day colorimetric neutral red uptake antiviral assay; format: cell-based, human parainfluenza type 3 virus; conditions: for SI: 7-Day colorimetric neutral red uptake assay, SI = Mean IC50/Mean EC50; for EC50: Homo sapiens, MA104, 168 h
Method: as §2, §1

[5] = system: HPIV-3 WT; test: Antiviral sensitivity CPE assay (neutral red), HPIV-3 WT; format: cell-based, human parainfluenza type 3 virus; conditions: Human respirovirus 3, MA104, 168 h, MA-104 cells, MOI=0.1, 7 days, NR, mean ± SD of three replicates
Method: as §2
(§3) An antiviral CPE assay was used to evaluate the antiviral sensitivity profiles of the HPIV-3 WT and rHPIV3-EGFP viruses. Briefly, three compounds: ribavirin (positive control), 2-thio-6-azauridine, and DAS181, were plated in four 10-fold dilutions in five replicates on 96-well plates seeded with MA-104 cells using starting concentrations of 1000, 100, and 1 μg/mL, respectively. […] Fifty percent effective concentrations (EC50) were calculated by linear regression using percents of untreated, uninfected cell and untreated, infected virus controls. EC50 values were compared and statistically analyzed by the unpaired, two-tailed Student's t-test.

[6] = system: rHPIV3-EGFP; test: Antiviral sensitivity CPE assay (neutral red), rHPIV3-EGFP; format: cell-based, human parainfluenza type 3 virus; conditions: MA104, 168 h
Method: as §2, §3

Row | SMILES | IC50 [1] [µg/mL] | EC50 [2] [µg/mL] | SI [2] | activity category by SI in the EGFP assay [2] | IC50 [3] [µg/mL] | SI [4] | EC50 [4] [µg/mL] | EC50 [5] [µg/mL] | EC50 [6] [µg/mL]
1 | NC(=O)c1c[se]c([C@@H]2O[C@H](CO)[C@@H](O)[C@H]2O)n1 [Selenazofurin, 2-[(2R,3R,4S,5R)-3,4-dihydroxy-5-(hydroxymethyl)oxolan-2-yl]-1,3-selenazole-4-carboxamide] | > 100 | 3.5 ± 0.1 | >29 | moderately active (between 10 and 49 moderately active) | 34 ± 7.2 | 7 | 4.9 ± 1.4 | – | –
2 | C#Cc1c(C(N)=O)ncn1[C@@H]1O[C@H](CO)[C@@H](O)[C@H]1O [EICAR, 1-[(2R,3R,4S,5R)-3,4-dihydroxy-5-(hydroxymethyl)oxolan-2-yl]-5-ethynylimidazole-4-carboxamide] | > 100 | 0.35 | >280 | – | > 100 | >120 | 0.81 ± 0.061 | – | –
3 | N=C(N)c1ncn([C@@H]2O[C@H](CO)[C@@H](O)[C@H]2O)n1 [Ribamidine, 1-[(2R,3R,4S,5R)-3,4-dihydroxy-5-(hydroxymethyl)oxolan-2-yl]-1,2,4-triazole-3-carboximidamide] | > 1000 | 68 ± 2.6 | >15 | moderately active (between 10 and 49 moderately active) | 390 ± 20 | 7 | 57 ± 15 | – | –
4 | NC(=O)c1ncn([C@@H]2O[C@H](CO)[C@@H](O)[C@H]2O)n1 [Ribavirin, 1-[(2R,3R,4S,5R)-3,4-dihydroxy-5-(hydroxymethyl)oxolan-2-yl]-1,2,4-triazole-3-carboxamide] | > 1000 | 31 | >32 | – | 230 ± 92 | 12 | 20 ± 3.6 | 35 ± 2.5 (≈ 143 µM) | 19 ± 4.9 (≈ 77.8 µM)
5 | O=c1cnn([C@@H]2O[C@H](CO)[C@@H](O)[C@H]2O)c(=S)[nH]1 [2-Thio-6-azauridine, 2-[(2R,3R,4S,5R)-3,4-Dihydroxy-5-(hydroxymethyl)oxolan-2-yl]-3-sulfanylidene-1,2,4-triazin-5-one] | > 100 | 0.89 ± 0.13 | >110 | – | 17 ± 3.5 | 28 | 0.6 ± 0.095 | 1.1 ± 0.058 (≈ 4.21 µM) | 0.63 ± 0.075 (≈ 2.41 µM)
6 | COc1ccc(COn2cnc3c(ncn3[C@@H]3O[C@H](CO)[C@@H](O)[C@H]3O)c2=N)cc1 [1-(4-methoxybenzyloxy) adenosine] | 41 ± 2.5 | > 41 | 0 | – | 31 ± 1.2 | 0 | > 31 | – | –
7 | Nc1cc2c(ncn2[C@@H]2O[C@H](CO)[C@@H](O)[C@H]2O)c(=O)[nH]1 [3-Deazaguanosine, 6-amino-1-[(2R,3R,4S,5R)-3,4-dihydroxy-5-(hydroxymethyl)oxolan-2-yl]-5H-imidazo[4,5-c]pyridin-4-one] | > 100 | 21 | >5 | – | 34 ± 3.5 | <1 | > 31 | – | –
